Experimental data taken from patent US11591596B2, “Compounds and compositions including phosphorothioated oligodeoxynucleotide, and methods of use thereof” (City of Hope, priority 2015, dated 2023).

Tests used:
miR-126 = miR-126 expression in K562 and MV4-11 cells with miR-126 inhibitors or mimics; assay type: cell-based; details: 500 nM, 24 hours
Method: FIGS. 26A-26E. Effective knockdown of miR-126 with miR-126 inhibitors conjugated with CpG, GpC and PS, and effective over-expression with miR-126 mimics in K562 and MV4-11 cells. K562 and MV4-11 cells were treated with miR-126 inhibitors conjugated with CpG, GpC, PS (FIGS. 26A-26B) or miR-126 mimics (615, 616 and 617) (FIGS. 26C-26D) (500 nM) for 24 hours, and miR-126 expression was measured in these cells. […] FIG. 26E) Tabulation of sequence set forth herein.
Effective knockdown of miR-126 with miR-126 inhibitors conjugated with CpG, GpC and PS, and effective over-expression with miR-126 mimics in K562 and MV4-11 cells. K562 and MV4-11 cells were treated with miR-126 inhibitors conjugated with CpG, GpC, PS (FIGS. 26A-26B) or miR-126 mimics (615, 616 and 617) (FIGS. 26C-26D) (500 nM) for 24 hours, and miR-126 expression was measured in these cells.

miR-146a = assay: Mature miR-146a expression by TAQMAN qPCR; assay type: cell-based, human and mouse; details: 100 nM
Method: FIGS. 19A-19H. Inhibitory effects of CpG-anti-miR146a. […] Mouse RAW264.7 (macrophages) (FIG. 19A) and DC2.4 (dendritic cells) (FIG. 19B) as well as human MV4-11 (FIG. 19C) and KG1a AML (FIG. 19D) cells were incubated with 100 nM CpG-anti-miR146a or CpG-scrambled RNA (negative control) for 18 h and then treated with 1 vg/ml LPS for 4 h. KG1a, MOLM13 (FIG. 19E), and MOLM14 (FIG. 19F) cells were incubated with 100 nM CpG-anti-miR146a or CpG-scrambled RNA for 18 h. FIGS. 19G-19H) Mouse CMM AML cells (FIG. 19G) and A20 lymphoma cells (FIG. 19H) were incubated with 100 nM CpG-miR146a mimic for 18 h. Mature miR-146a expression was measured using TAQMAN® qPCR assay and normalized to snoRNA234 levels. miR-146a expression level in untreated samples was set as 1.0. Data are shown as means±SEM (n=3). *P<0.05.
(§1) FIGS. 21A-21H. Comparing the inhibition effects of CpG-anti-miR and GpC-anti-miR. […] The cells were incubated with 100 nM CpG-anti-miRs or GpC-anti-miRs for 18 hrs. […] RAW264.7 (FIGS. 21E,21G) or A20 cells (FIGS. 21F,21H) were incubated with 500 nM of CpG-anti-miR155, GpC-anti-miR155, or CpG-anti-miR146a, GpC-anti-miR146a for 48 hrs, then the cell lysates were collected and immunoblotted using antibodies against SHIP1 (miR155 target) or IRAK1 (miR146a target)
The cells were incubated with 100 nM CpG-anti-miRs or GpC-anti-miRs for 18 hrs. […] RAW264.7 (FIGS. 21E,21G) or A20 cells (FIGS. 21F,21H) were incubated with 500 nM of CpG-anti-miR155, GpC-anti-miR155, or CpG-anti-miR146a, GpC-anti-miR146a for 48 hrs, then the cell lysates were collected and immunoblotted using antibodies against SHIP1 (miR155 target) or IRAK1 (miR146a target).

IRAK1 (miR146a target) = assay: Immunoblot of downstream target IRAK1; assay type: cell-based, mouse or human; details: for IRAK1 (downstream target regulation): 500 nM, 48 hrs, RAW264.7 or A20 cells
Method: (§2) FIGS. 20A-20D. Effects of CpG-anti-miRNAs on downstream targets. […] Mouse RAW264.7 or human MV4-11 cells were incubated with 250 nM or 500 nM of CpG-anti-miR155, CpG-anti-miR125b, or CpG-anti-miR146a, or 500 nM of CpG-scramble for 48 h, then the cell lysates were collected and electrophoresed and immunoblotted by antibodies against SHIP1 (miR155 target) (FIG. 20A), IRF4 (miR125b target) (FIG. 20B), or IRAK1 (miR146a target) (FIG. 20C). The band intensities were normalized against β-actin and quantified. Fold induction over the control protein levels are indicated below the blot. FIG. 20D) MV4-11 cells were incubated with 500 nM of CpG-anti-miR155, CpG-antimiR125b, CpG-anti-miR146a, or CpG-scramble for 24 h, then cell lysates were collected and electrophoresed and immunoblotted to detect activated caspase 3 indicating induction of apoptosis.
as §1
Mouse RAW264.7 or human MV4-11 cells were incubated with 250 nM or 500 nM of CpGanti-miR155, CpG-anti-miR125b, or CpG-anti-miR146a, or 500 nM of CpG-scramble for 48 h, then the cell lysates were collected and electrophoresed and immunoblotted by antibodies against SHIP1 (miR155 target) (FIG. 20A), IRF4 (miR125b target) (FIG. 20B), or IRAK1 (miR146a target) (FIG. 20C). The band intensities were normalized against β-actin and quantified. Fold induction over the control protein levels are indicated below the blot. FIG. 20D) MV4-11 cells were incubated with 500 nM of CpG-anti-miR155, CpG-antimiR125b, CpG-anti-miR146a, or CpG-scramble for 24 h, then cell lysates were collected and electrophoresed and immunoblotted to detect activated caspase 3 indicating induction of apoptosis. […]

[1] = tested on: Human immune cells (CD14+ monocytes, CD1c+ mDCs, CD3+ T cells and CD19+ B cells); assay: Uptake of Cy3-labeled CpG-anti-miRs by human immune cells, flow cytometry; assay type: cell-based; details: for intracellular uptake: Cy3-labeled, human immune cells
Method: FIGS. 16A-16B. Cell-selective uptake of CpG-anti-miR146a. […] CpG-anti-miR146a was Cy3-labeled to detect the intracellular uptake by target cells using flow cytometry. FIG. 16A) Human immune cells were incubated with indicated concentrations of CpG-anti-miR146acY3 for 1 hr. The uptake by CD14+ monocytes, CD1c+ mDCs, CD3+ T cells and CD19+ B cells was measured using flow cytometry.
where * indicates a phosphorothioate linkage, mN indicates a 2′OMe modified nucleotide, and x indicates a linker described herein. CpG-anti-miRNAs were Cy3-labeled to detect the intracellular uptake by target cells using flow cytometry. […] Treatment of these compounds reduces the corresponding miR expression in human and mouse myeloid cells (FIGS. 17A-17F, 18A-18F, 19A-19H).

miR-155 = assay: Mature miR-155 expression by TAQMAN qPCR; assay type: cell-based, human and mouse; details: 100 nM
Method: FIGS. 17A-17F. Inhibitory effects of CpG-anti-miR155. […] Mouse RAW264.7 (macrophages) (FIG. 17A) and DC2.4 (dendritic cells) (FIG. 17B) as well as human MV4-11 AML cells (FIG. 17C) were incubated with 100 nM CpG-anti-miR155 or CpG-scrambled RNA (negative control) for 18 h and then treated with 1 vg/ml LPS for 4 h. KG1a (FIG. 17D), MOLM13 (FIG. 17E), and MOLM14 (FIG. 17F) cells were incubated with 100 nM CpG-anti-miR155 or CpG-scrambled RNA for 18 h. Mature miR-155 expression was measured using TAQMAN® qPCR assay and normalized to snoRNA234 levels. miR-155 expression level in untreated samples was set as 1.0. Data are shown as means±SEM (n=3). *P<0.05.
as §1
The cells were incubated with 100 nM CpG-anti-miRs or GpC-anti-miRs for 18 hrs. […]

SHIP1 (miR155 target) = assay: Immunoblot of downstream target SHIP1; assay type: cell-based, mouse or human
Method: as §2
FIGS. 21A-21H. Comparing the inhibition effects of CpG-anti-miR and GpC-anti-miR. […]
Mouse RAW264.7 or human MV4-11 cells were incubated with 250 nM or 500 nM of CpGanti-miR155, CpG-anti-miR125b, or CpG-anti-miR146a, or 500 nM of CpG-scramble for 48 h, then the cell lysates were collected and electrophoresed and immunoblotted by antibodies against SHIP1 (miR155 target) (FIG. 20A), IRF4 (miR125b target) (FIG. 20B), or IRAK1 (miR146a target) (FIG. 20C). The band intensities were normalized against β-actin and quantified. […]

[2] = tested on: human AML cells KG1a, MOLM13, and MOLM14; assay: Uptake of Cy3-labeled CpG-anti-miR146a by cultured AML cells; assay type: cell-based; details: even at low concentrations
miR-125b = assay: Mature miR-125b expression by TAQMAN qPCR; assay type: cell-based, human and mouse; details: 100 nM, 18 h; various cell models
Method: FIGS. 18A-18F. Inhibitory effects of CpG-anti-miR125b. […] RAW264.7 (FIG. 18A), DC2.4 (FIG. 18B), and MV4-11 (FIG. 18C) cells were incubated with 100 nM CpG-anti-miR125b or CpG-scrambled RNA (negative control) for 18 h and then treated with 1 vg/mILPS for 4 h. Human AML cells—KG1a (FIG. 18D), MOLM13 (FIG. 18E), and MOLM14 (FIG. 18F)—were incubated with 100 nM CpG-anti-miR125b or control CpG-scrambled RNA for 18 h. Mature miR-125b expression was measured using TAQMAN® qPCR assay and normalized to snoRNA234 levels. miR-125b expression level in untreated samples was set as 1.0. Data are shown as means±SEM (n=3). *P<0.05.

IRF4 (miR125b target) = assay: Immunoblot of downstream target IRF4; assay type: cell-based, mouse or human; details: 250 nM or 500 nM, 48 h; RAW264.7 or MV4-11 cells
Method: as §2
Mouse RAW264.7 or human MV4-11 cells were incubated with 250 nM or 500 nM of CpGanti-miR155, CpG-anti-miR125b, or CpG-anti-miR146a, or 500 nM of CpG-scramble for 48 h, then the cell lysates were collected and electrophoresed and immunoblotted by antibodies against SHIP1 (miR155 target) (FIG. 20A), IRF4 (miR125b target) (FIG. 20B), or IRAK1 (miR146a target) (FIG. 20C). The band intensities were normalized against β-actin and quantified. Fold induction over the control protein levels are indicated below the blot. […]

[3] = 18 h, human and mouse myeloid cells
[4] = 250 nM or 500 nM, 48 h, RAW264.7 or MV4-11 cells

Substance: 5′ G*G*T*G*C*A*T*C*G*A*T*G*C*A*G*G*G*G*G*G (SEQ ID NO: 3) xxxxx mC*mG*mC* mA*mU*mU* mA*mU*mU* mA*mC*mU* mC*mA*mC* mG*mG*mU* mA*mC*mG*mA (SEQ ID NO: 48) 3′ [completely PS-modified oligo]
- miR-126 expression (knockdown by inhibitors) (miR-126): succeeds in blocking miR126

Substance: 5′ G*GT. GCA TGC ATG CAG G*G*G*G*G (SEQ ID NO: 2) xxxxx mCmGmC mAmUmU mAmUmU mAmCmU mCmAmC mGmGmU mAmCmG mA (SEQ ID NO: 17) 3′ [GpC]
- miR-126 expression (knockdown by inhibitors) (miR-126): succeeds in blocking miR126

Substance: G*G*T GCA TGC ATG CAGG*G*G* G*G (SEQ ID NO: 2) xxxxx mC*mC*mC*mA*mT*mG*mG*mA*mA*mT*mT*mC*mA*mG*mT*mT*mC*mT*mC*mA (SEQ ID NO: 36) 3′ [GpC-anti-miR146a]
- miR-146a expression (miR-146a; 18 hrs, RAW264.7 and A20 cells): reduces miR155 or miR-146a expression
- IRAK1 (downstream target regulation) (IRAK1 (miR146a target)): regulates downstream targets

Substance: 5′G*G*T GCA TCG ATG CAGG*G*G* G*G xxxxx mA*mC*mC*mC*mC*mU*mA*mU*mC*mA*mC*mA*mA*mU*mU*mA*mG*mC*mA*mU*mU*mA*mA 3′ [CpG-anti-miR155]
- intracellular uptake [1]: uptake of these compounds was observed
- miR-155 expression (miR-155; [3]): reduces miR-155 expression
- miR155 expression (miR-155; 18 hrs, RAW264.7 and A20 cells): reduces miR155 or miR-146a expression
- SHIP1 protein level (SHIP1 (miR155 target); [4]): upregulated
- SHIP1 (downstream target regulation) (SHIP1 (miR155 target); 500 nM, 48 hrs, RAW264.7 or A20 cells): regulates downstream targets

Substance: 5′ G*G*T GCA TCG ATG CAGG*G*G* G*G xxxxx mC*mC*mC*mA*mU*mG*mG*mA*mA*mU*mU*mC*mA*mG*mU*mU*mC*mU*mC*mA 3′ [CpG-anti-miR146a]
- intracellular uptake [1]: uptake of these compounds was observed
- internalization by target immune and leukemic cells ([1]; without any transfection reagents): Dose and time dependent internalization
- internalization by cultured AML cells [2]: rapidly internalize
- miR-146a expression (miR-146a; [3]): reduces miR-146a expression
- miR-146a expression (miR-146a; 18 hrs, RAW264.7 and A20 cells): reduces miR155 or miR-146a expression
- IRAK1 protein level (IRAK1 (miR146a target); [4]): upregulated
- IRAK1 (downstream target regulation) (IRAK1 (miR146a target)): regulates downstream targets

Substance: 5′ G*G*T GCA TCG ATG CAGG*G*G* G*G xxxxx mU*mC*mA*mC*mA*mA*mG*mU*mU*mA*mG*mG*mG*mU*mC*mU*mC*mA*mG*mG*mG*mA 3′ [CpG-anti-miR125b]
- intracellular uptake [1]: uptake of these compounds was observed
- miR-125b expression (miR-125b): reduces miR-125b expression
- IRF4 protein level (downstream target regulation) (IRF4 (miR125b target)): regulate downstream targets
